The record followed here is the Bradley open melting point set (2014).

What is called melting point is the temperature, or range, at which the solid turns liquid.

“And” between values parts separate entries of the source, which are not always exact repeats. Identical values can stand only once.

As for `NC(=O)C(F)(F)F` [2,2,2-trifluoroacetamide], the melting point turned out to be 73 °C. Compound `Nc1ccc(N)cc1` [Benzene-1,4-diamine] had a melting point of 140 °C. For the compound `Cc1cccc(N/N=C(\C#N)c2nc(-c3ccc(Cl)cc3)cs2)c1`, the melting point turned out to be 158 °C. The result for `O=C(S)CCCC(=O)S` [methylenebis(thioacetic acid)] reads 128 °C; that for `N#Cc1cccc(I)c1` [3-iodobenzonitrile], 40 °C; that for `O=C(O)c1c(Cl)cccc1Cl` [2,6-dichlorobenzoic_acid], 144 °C. The result for `Nc1cccc(N)c1` [m-phenylenediamine] reads 65 °C; that for `O=C(O)Cc1cccc2ccccc12` [Naphthalen-1-Yl-Acetic Acid], 135 °C. Compound `OB(O)c1cc(F)c(F)c(F)c1F` [2,3,4,5-tetrafluorobenzeneboronic acid] returned a melting point of 253 °C.

Compound `COc1cc2nc(N3CCN(C(=O)c4ccco4)CC3)nc(N)c2cc1OC` [prazosin] gave a melting point of 285 °C. The result for `O=C5\C=C4/C(C3CCC2(C(CCC2OC(=O)Cc1ccccc1)C3CC4)C)(C)CC5` (centres undefined) [testosterone phenylacetate] reads 129 °C. With `COc1cc(C(=O)Cl)cc(OC)c1OC` [3,4,5-trimethoxybenzoyl chloride], the melting point was 80 °C. Compound `COc1ccc(-c2ccccc2)cc1` [4-methoxybiphenyl] gave a melting point of 91 °C.

In turn, `N#CCc1nc2ccccc2s1` [2-benzothiazoleacetonitrile] showed a melting point of 101 °C. Under `O=C(CCl)OC(=O)CCl` [chloroacetic anhydride] stands 58 °C; under `Cc1c(F)ccc([N+](=O)[O-])c1C` [3-fluoro-1,2-dimethyl-6-nitrobenzene], 41 °C; under `O=C(O)COc1ccccc1` [phenoxyacetic_acid], 100 °C. Under `CC(C)CCCC(C)C1CC[C@@]2(C)[C@@]34CCC5[C@H](C)[C@@H](O)CC[C@]5(C)[C@]3(CC[C@]12C)O4` (some centres undefined) stands 162 °C.

The compound `COC(=O)Cc1ccc(Cl)c(Cl)c1` [methyl 3,4-dichlorophenylacetate] came in with a melting point of 29 °C. Consider `Cc1cccc2c1Cc1ccccc1-2` [1-Methylfluorene], for which the melting point is 85 °C. The compound `OCCOc1ccccc1` [2-phenoxyethanol] returned a melting point of 13 °C. The result for `CCOC(=O)/C=C/c1ccccc1N` [Ethyl (2E)-3-(2-aminophenyl)acrylate] reads 77 °C; that for `BrCCCCBr` [1,4-dibromobutane], -20 °C.

With `Cc1cccc(O)c1` [m-Cresol], the melting point turned out to be 11 °C. `CCOC(=O)CCCCC(=O)OCC` [diethyl_adipate] showed a melting point of -18 °C. For the compound `Cc1cc(CC(=O)O)n(C)c1C(=O)c1ccc(Cl)cc1` [zomepirac], the melting point amounted to 178 °C. Under `Cc1ccc([N+](=O)[O-])cc1` [4-nitrotoluene] stands 53 °C; under `C[C@@H]1C[C@H]2[C@@H]3CCC4=CC(=O)C=C[C@]4(C)[C@@]3(F)[C@@H](O)C[C@]2(C)[C@@]1(O)C(=O)CO` [dexamethasone], 263 °C; under `CC(=O)N(C1=NC(=O)/C(=C/c2cc(C)n(-c3ccc(C(F)(F)F)cc3)c2C)S1)c1ccccc1` [OSM-S-45], 310 °C. Consider `CC(C)(C)OC(=O)NCCCC[C@H](NC(=O)OCC1c2ccccc2-c2ccccc21)C(=O)O`, for which the melting point came to 132 °C. Under `ClC(Cl)(Cl)Cl` [carbon tetrachloride] stands -23 °C (4×) and -22.9 °C; under `CCOCCOCCO` [2-(2-Ethoxyethoxy)ethanol], -76 °C. Compound `CC(=O)Oc1ccc(OC(C)=O)cc1` [hydroquinone_diacetate] registered a melting point of 125 °C. In turn, `OCc1ccc(Br)cc1` [4-bromobenzyl alcohol] had a melting point of 78 °C.
